Assay [1] concerns the target T1, human insulin receptor type B (IR(B)) (Homo sapiens, UniProt P06213).
T1 construct: expressed in transfected cells; host or cells: CHO cells (G418 selection)
In words: Insulin receptor competition binding assay (125[I]-insulin; whole cell or SPA). As to the method: Method D: IR binding assay was run in a scintillation proximity assay (SPA) in 384-well format using cell membranes prepared from CHO cells overexpressing human IR(B) grown in F12 media containing 10% FBS and antibiotics (G418, Penicillin/[…]).
(§1) The in vitro biological activities towards insulin receptor (IR) were measured by either ligand competition assays or functional phosphorylation assays, as described above, labeled as following: Method A: IR phosphorylation assay based on 96-well; Method B: IR phosphorylation assay based on 384-well with automated liquid dispense; Method C: cell-based IR binding assay; Method D: SPA IR binding assay method E; Method E: MRC1 assay was performed in a 96-well plate; Method F: MRC1 assay was performed in a 384-well plate.

The target of assay [2] is T2, Human macrophage mannose receptor 1 (MRC1) (Homo sapiens, UniProt P22897).
T2 sequence (P22897 19-1456): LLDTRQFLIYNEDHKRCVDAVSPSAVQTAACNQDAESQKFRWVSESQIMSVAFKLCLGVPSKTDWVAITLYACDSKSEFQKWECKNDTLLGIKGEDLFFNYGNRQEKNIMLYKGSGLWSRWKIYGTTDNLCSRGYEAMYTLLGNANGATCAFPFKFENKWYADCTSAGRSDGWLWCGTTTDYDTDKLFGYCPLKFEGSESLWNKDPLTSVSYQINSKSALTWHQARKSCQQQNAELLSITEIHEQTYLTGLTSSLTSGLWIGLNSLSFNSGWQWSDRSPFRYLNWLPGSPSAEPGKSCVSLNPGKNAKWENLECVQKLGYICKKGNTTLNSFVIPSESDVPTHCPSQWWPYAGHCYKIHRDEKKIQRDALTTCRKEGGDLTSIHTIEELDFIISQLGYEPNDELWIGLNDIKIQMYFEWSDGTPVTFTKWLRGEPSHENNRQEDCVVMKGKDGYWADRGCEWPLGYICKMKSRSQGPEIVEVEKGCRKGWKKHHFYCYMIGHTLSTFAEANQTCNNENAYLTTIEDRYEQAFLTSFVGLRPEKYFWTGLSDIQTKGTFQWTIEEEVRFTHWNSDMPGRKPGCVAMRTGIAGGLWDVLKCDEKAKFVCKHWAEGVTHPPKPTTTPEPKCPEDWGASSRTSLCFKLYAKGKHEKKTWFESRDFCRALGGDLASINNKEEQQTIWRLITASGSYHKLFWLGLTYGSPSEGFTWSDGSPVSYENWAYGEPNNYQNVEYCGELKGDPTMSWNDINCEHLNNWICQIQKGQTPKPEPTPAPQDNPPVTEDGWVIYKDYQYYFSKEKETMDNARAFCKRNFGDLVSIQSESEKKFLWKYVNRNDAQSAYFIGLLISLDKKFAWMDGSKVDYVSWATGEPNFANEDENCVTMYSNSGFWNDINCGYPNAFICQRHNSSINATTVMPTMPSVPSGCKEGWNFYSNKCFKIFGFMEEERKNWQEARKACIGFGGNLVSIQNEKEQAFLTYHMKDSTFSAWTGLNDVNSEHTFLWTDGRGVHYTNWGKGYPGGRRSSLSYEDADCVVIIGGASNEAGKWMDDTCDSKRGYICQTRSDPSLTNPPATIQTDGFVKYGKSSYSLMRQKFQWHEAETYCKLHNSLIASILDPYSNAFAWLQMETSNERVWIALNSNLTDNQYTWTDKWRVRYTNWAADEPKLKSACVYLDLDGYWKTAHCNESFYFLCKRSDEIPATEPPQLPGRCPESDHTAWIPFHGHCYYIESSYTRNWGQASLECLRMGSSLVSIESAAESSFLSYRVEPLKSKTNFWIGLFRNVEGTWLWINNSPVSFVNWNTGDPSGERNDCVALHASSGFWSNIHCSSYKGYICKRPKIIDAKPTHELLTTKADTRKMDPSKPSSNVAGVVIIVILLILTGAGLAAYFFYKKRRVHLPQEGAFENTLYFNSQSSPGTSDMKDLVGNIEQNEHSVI
The assay can be described thus: Human macrophage mannose receptor 1 (MRC1) competition binding assay. The settings on record: competition against Eu-labeled mannosylated-BSA. As to the method:
The competition binding assay for MRC1 utilized a ligand, mannosylated-BSA labeled with the DELFIA Eu-N1-ITC reagent (labeling kit for europium labeling of proteins and polypetides for use in dissociation-enhanced time-resolved fluorometric assay), as reported in the literature. Assay was performed either in a 96-well plate with 100 μL well volume (Method E) or in a 384-well plate with 25 μL well volume (Method F). […] The antibody was incubated in the plate for 1 h at rt with shaking. The plate was washed with wash buffer 3-5 times followed by addition of MRC1 (2 ng/μl final concentration) in PBS containing 1% stabilizer BSA. The plate was incubated at rt with gentle shaking for 1 h. The plate was washed three times with wash buffer. […]
as §1

T1 sequence (P06213 28-758 limits assumed): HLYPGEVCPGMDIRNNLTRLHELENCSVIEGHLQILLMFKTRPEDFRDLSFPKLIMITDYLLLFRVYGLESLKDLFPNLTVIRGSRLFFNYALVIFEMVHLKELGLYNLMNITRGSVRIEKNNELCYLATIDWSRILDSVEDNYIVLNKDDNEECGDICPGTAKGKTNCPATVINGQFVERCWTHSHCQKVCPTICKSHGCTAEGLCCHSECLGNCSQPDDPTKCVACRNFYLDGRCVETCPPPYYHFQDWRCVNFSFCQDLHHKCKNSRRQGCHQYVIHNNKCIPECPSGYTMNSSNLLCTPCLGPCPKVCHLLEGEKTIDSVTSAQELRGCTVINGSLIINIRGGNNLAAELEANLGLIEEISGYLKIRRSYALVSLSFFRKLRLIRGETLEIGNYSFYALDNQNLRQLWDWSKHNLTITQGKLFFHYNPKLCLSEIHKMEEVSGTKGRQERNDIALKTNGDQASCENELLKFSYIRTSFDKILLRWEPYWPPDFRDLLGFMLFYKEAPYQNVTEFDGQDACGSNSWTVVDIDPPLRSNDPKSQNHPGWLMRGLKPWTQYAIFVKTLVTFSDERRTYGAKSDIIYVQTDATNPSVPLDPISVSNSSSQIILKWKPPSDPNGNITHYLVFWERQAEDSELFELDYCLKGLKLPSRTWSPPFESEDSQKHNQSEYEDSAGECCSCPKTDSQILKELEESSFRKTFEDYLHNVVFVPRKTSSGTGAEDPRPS
T1 sequence (P06213 763-1382 limits assumed): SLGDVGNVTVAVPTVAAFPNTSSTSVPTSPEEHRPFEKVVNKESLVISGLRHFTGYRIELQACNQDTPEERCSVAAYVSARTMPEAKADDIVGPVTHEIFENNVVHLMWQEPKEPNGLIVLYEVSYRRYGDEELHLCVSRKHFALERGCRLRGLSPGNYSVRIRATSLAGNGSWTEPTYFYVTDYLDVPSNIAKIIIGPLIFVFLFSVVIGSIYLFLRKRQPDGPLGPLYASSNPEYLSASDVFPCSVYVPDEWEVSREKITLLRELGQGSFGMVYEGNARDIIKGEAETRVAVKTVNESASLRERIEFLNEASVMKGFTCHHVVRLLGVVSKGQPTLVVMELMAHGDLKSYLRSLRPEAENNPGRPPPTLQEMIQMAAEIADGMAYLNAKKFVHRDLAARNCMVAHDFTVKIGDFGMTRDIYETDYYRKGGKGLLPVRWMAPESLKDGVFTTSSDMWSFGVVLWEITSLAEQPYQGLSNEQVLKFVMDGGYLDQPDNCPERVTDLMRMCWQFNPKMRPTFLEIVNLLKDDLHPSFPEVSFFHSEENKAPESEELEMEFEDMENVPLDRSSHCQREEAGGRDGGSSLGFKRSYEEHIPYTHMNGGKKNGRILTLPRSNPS

With `CC[C@H](C)[C@H](NC(=O)CN)C(=O)N[C@H](C(=O)N[C@@H](CCC(=O)O)C(=O)N[C@@H](CCC(N)=O)C(=O)N[C@H]1CSSC[C@@H]2NC(=O)[C@H]([C@@H](C)CC)NC(=O)[C@H](CO)NC(=O)[C@H]([C@@H](C)O)NC(=O)[C@H](CSSC[C@H](NC(=O)[C@H](CC(C)C)NC(=O)[C@H](Cc3c[nH]cn3)NC(=O)[C@H](CCC(N)=O)NC(=O)[C@H](CC(N)=O)NC(=O)[C@@H](NC(=O)[C@H](Cc3ccccc3)NC(=O)CCCCC(=O)N(CC(=O)N(CCO[C@H]3O[C@H](CO)[C@@H](O)[C@H](O)[C@@H]3O)CCO[C@H]3O[C@H](CO)[C@@H](O)[C@H](O)[C@@H]3O)CC(=O)N(CCO[C@H]3O[C@H](CO)[C@@H](O)[C@H](O)[C@@H]3O)CCO[C@H]3O[C@H](CO)[C@@H](O)[C@H](O)[C@@H]3O)C(C)C)C(=O)NCC(=O)N[C@@H](CO)C(=O)N[C@@H](Cc3c[nH]cn3)C(=O)N[C@@H](CC(C)C)C(=O)N[C@@H](C(C)C)C(=O)N[C@@H](CCC(=O)O)C(=O)N[C@@H](C)C(=O)N[C@@H](CC(C)C)C(=O)N[C@@H](Cc3ccc(O)cc3)C(=O)N[C@@H](CC(C)C)C(=O)N[C@@H](C(C)C)C(=O)N[C@H](C(=O)NCC(=O)N[C@@H](CCC(=O)O)C(=O)N[C@@H](CCCNC(=N)N)C(=O)NCC(=O)N[C@@H](Cc3ccccc3)C(=O)N[C@@H](Cc3ccccc3)C(=O)N[C@@H](Cc3ccc(O)cc3)C(=O)N[C@H](C(=O)N3CCC[C@H]3C(=O)N[C@@H](CCCCNC(=O)CCCCC(=O)N(CC(=O)N(CCO[C@H]3O[C@H](CO)[C@@H](O)[C@H](O)[C@@H]3O)CCO[C@H]3O[C@H](CO)[C@@H](O)[C@H](O)[C@@H]3O)CC(=O)N(CCO[C@H]3O[C@H](CO)[C@@H](O)[C@H](O)[C@@H]3O)CCO[C@H]3O[C@H](CO)[C@@H](O)[C@H](O)[C@@H]3O)C(=O)N[C@H](C(=O)O)[C@@H](C)O)[C@@H](C)O)CSSC[C@@H](C(=O)N[C@@H](CC(N)=O)C(=O)O)NC(=O)[C@H](Cc3ccc(O)cc3)NC(=O)[C@H](CC(N)=O)NC(=O)[C@H](CCC(=O)O)NC(=O)[C@H](CC(C)C)NC(=O)[C@H](CCC(N)=O)NC(=O)[C@H](Cc3ccc(O)cc3)NC(=O)[C@H](CC(C)C)NC(=O)[C@H](CO)NC2=O)NC1=O)C(C)C` [IOC-31], the half-maximal inhibitory concentration (IC50) in assay [1] stood at 0.9 nM.
`CC[C@H](C)[C@H](NC(=O)CN)C(=O)N[C@H](C(=O)N[C@@H](CCC(=O)O)C(=O)N[C@@H](CCC(N)=O)C(=O)N[C@H]1CSSC[C@@H]2NC(=O)[C@H]([C@@H](C)CC)NC(=O)[C@H](CO)NC(=O)[C@H]([C@@H](C)O)NC(=O)[C@H](CSSC[C@H](NC(=O)[C@H](CC(C)C)NC(=O)[C@H](Cc3c[nH]cn3)NC(=O)[C@H](CCC(N)=O)NC(=O)[C@H](CC(N)=O)NC(=O)[C@@H](NC(=O)[C@H](Cc3ccccc3)NC(=O)CCCCCNC(=O)CCCCC(=O)N(CC(=O)N(CCO[C@H]3O[C@H](CO)[C@@H](O)[C@H](O)[C@@H]3O)CCO[C@H]3O[C@H](CO)[C@@H](O)[C@H](O)[C@@H]3O)CC(=O)N(CCO[C@H]3O[C@H](CO)[C@@H](O)[C@H](O)[C@@H]3O)CCO[C@H]3O[C@H](CO)[C@@H](O)[C@H](O)[C@@H]3O)C(C)C)C(=O)NCC(=O)N[C@@H](CO)C(=O)N[C@@H](Cc3c[nH]cn3)C(=O)N[C@@H](CC(C)C)C(=O)N[C@@H](C(C)C)C(=O)N[C@@H](CCC(=O)O)C(=O)N[C@@H](C)C(=O)N[C@@H](CC(C)C)C(=O)N[C@@H](Cc3ccc(O)cc3)C(=O)N[C@@H](CC(C)C)C(=O)N[C@@H](C(C)C)C(=O)N[C@H](C(=O)NCC(=O)N[C@@H](CCC(=O)O)C(=O)N[C@@H](CCCNC(=N)N)C(=O)NCC(=O)N[C@@H](Cc3ccccc3)C(=O)N[C@@H](Cc3ccccc3)C(=O)N[C@@H](Cc3ccc(O)cc3)C(=O)N[C@H](C(=O)N3CCC[C@H]3C(=O)N[C@@H](CCCCNC(=O)CCCCCNC(=O)CCCCC(=O)N(CC(=O)N(CCO[C@H]3O[C@H](CO)[C@@H](O)[C@H](O)[C@@H]3O)CCO[C@H]3O[C@H](CO)[C@@H](O)[C@H](O)[C@@H]3O)CC(=O)N(CCO[C@H]3O[C@H](CO)[C@@H](O)[C@H](O)[C@@H]3O)CCO[C@H]3O[C@H](CO)[C@@H](O)[C@H](O)[C@@H]3O)C(=O)N[C@H](C(=O)O)[C@@H](C)O)[C@@H](C)O)CSSC[C@@H](C(=O)N[C@@H](CC(N)=O)C(=O)O)NC(=O)[C@H](Cc3ccc(O)cc3)NC(=O)[C@H](CC(N)=O)NC(=O)[C@H](CCC(=O)O)NC(=O)[C@H](CC(C)C)NC(=O)[C@H](CCC(N)=O)NC(=O)[C@H](Cc3ccc(O)cc3)NC(=O)[C@H](CC(C)C)NC(=O)[C@H](CO)NC2=O)NC1=O)C(C)C` [IOC-32] showed an IC50 in assay [2] of 2.58 nM.
